According to ChEMBL document CHEMBL3621076, “Synthesis and Characterization in Vitro and in Vivo of (l)-(Trimethylsilyl)alanine Containing Neurotensin Analogues” (J Med Chem, 2015):
Active and inactive are the calls of the source. The calls are words filed in the database; no cut-off is given here. Square brackets hold non-standard residues; d marks the D form. Peptide text beside a SMILES is read from it. Pro(4-sila,4,4-Me2) = C[Si]1(C)CN[C@H](C(=O)O)C1; Ala(SiMe3) = C[Si](C)(C)C[C@H](N)C(=O)O; NMeR = CN[C@@H](CCCNC(=N)N)C(=O)O; hLys = NCCCCC[C@H](N)C(=O)O

Tests used:
[1] = Half life in rat plasma at 0.156 mM by UPLC/MS method; format: ADME, cell-free
Rattus norvegicus [2] = experiment: Reduction in arterial blood pressure in Sprague-Dawley rat at 0.1 mg/kg, iv measured over 4 mins; format: functional
[3] = target: T1, Neurotensin receptor type 1 (Homo sapiens, UniProt P30989); experiment: Displacement of [125I]-Tyr3-NT from human NTS1 receptor expressed in CHOK1 cell membranes incubated for 30 mins by gamma-counting based competitive radioligand binding assay; set-up: species or system CHO-K1
[4] = target: Neurotensin receptor type 2 (Homo sapiens, UniProt O95665); experiment: Displacement of [125I]-Tyr3-NT from human NTS2 receptor expressed in 1321N1 cell membranes incubated for 30 mins by gamma-counting based competitive radioligand binding assay
[5] = target: T1, Neurotensin receptor type 1; experiment: Agonist activity at human NTS1 receptor expressed in CHOK1 cells co-expressing Galphaq-RlucII(121)/Gbeta1/GFP10-Ggamma1 assessed as Galpha-q stimulation incubated for 15 mins by BRET assay; format: cell-based, CHO-K1
[6] = target: T1, Neurotensin receptor type 1; experiment: Agonist activity at human NTS1 receptor expressed in CHOK1 cells co-expressing hNTS1-GFP10/RlucII-beta-arrestin 2 assessed as beta-arrestin2 recruitment incubated for 15 mins by BRET assay; format: cell-based, CHO-K1
[7] = target: Neurotensin receptor type 1 (Rattus norvegicus, UniProt P20789); experiment: Agonist activity at […] NTS1 in Sprague-Dawley rat ileum assessed as inhibition of carbachol-induced contraction; format: tissue-based
Rattus norvegicus [8] = experiment: Reduction in arterial blood pressure in Sprague-Dawley rat assessed as hypotensive effect during pressor phase returning to baseline saline values within <1 mins at 0.1 mg/kg, iv measured over 4 mins; format: functional, organism-based
Rattus norvegicus [9] = experiment: Reduction in arterial blood pressure in Sprague-Dawley rat assessed as sustained and pronounced hypotensive phase at 0.1 mg/kg, iv measured over 4 mins; format: functional, organism-based
Rattus norvegicus [10] = experiment: Analgesic activity in Sprague-Dawley rat assessed as increase in response latency to thermal noxious stimulus at 30 ug/kg, it measured every 10 mins for up to 1 hr post dose by tail immersion test; format: functional, organism-based
Rattus norvegicus [11] = experiment: Analgesic activity in Sprague-Dawley rat assessed as maximal possible effect for reduction in sensitivity to heat stimulation at 30 ug/kg, it measured every 10 mins for up to 1 hr post dose by tail immersion test; format: functional; set-up: scale not given: the % may be the effect or the level left
Rattus norvegicus [12] = experiment: Analgesic activity in Sprague-Dawley rat model of formalin-induced persistent tonic pain model assessed as reduction in weighted pain score during acute phase at 30 ug/kg, it by formalin test; format: functional, organism-based
Rattus norvegicus [13] = experiment: Analgesic activity in Sprague-Dawley rat model of formalin-induced persistent tonic pain model assessed as reduction in weighted pain score during inflammatory phase at 30 ug/kg, it by formalin test; format: functional, organism-based
Rattus norvegicus [14] = species on record: Rattus norvegicus; experiment: Analgesic activity in rat by tail flick test; format: functional

Neurotensin receptor type 2, sequence (O95665 whole entry): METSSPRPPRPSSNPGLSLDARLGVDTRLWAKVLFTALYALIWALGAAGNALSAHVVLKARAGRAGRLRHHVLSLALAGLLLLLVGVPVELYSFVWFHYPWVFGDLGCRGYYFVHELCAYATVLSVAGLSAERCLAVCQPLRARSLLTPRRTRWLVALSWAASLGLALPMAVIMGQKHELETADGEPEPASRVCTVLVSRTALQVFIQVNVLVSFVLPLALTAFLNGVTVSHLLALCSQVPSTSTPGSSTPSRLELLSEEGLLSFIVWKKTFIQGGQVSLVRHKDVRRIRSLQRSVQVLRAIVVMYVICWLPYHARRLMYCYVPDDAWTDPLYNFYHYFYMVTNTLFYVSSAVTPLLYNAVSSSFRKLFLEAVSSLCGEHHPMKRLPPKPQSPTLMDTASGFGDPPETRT
T1 sequence (P30989 whole entry): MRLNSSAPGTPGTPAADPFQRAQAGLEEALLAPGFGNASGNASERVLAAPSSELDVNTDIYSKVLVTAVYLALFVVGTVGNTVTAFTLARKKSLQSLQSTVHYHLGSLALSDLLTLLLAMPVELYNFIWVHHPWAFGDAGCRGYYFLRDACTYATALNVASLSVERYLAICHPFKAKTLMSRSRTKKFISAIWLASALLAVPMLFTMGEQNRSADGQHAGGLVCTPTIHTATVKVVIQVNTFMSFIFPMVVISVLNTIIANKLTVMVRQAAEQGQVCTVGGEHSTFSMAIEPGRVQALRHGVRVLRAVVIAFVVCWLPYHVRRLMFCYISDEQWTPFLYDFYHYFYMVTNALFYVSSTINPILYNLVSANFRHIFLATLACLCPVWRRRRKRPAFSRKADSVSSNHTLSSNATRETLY
Neurotensin receptor type 1 (Rattus norvegicus, UniProt P20789), sequence (P20789 whole entry): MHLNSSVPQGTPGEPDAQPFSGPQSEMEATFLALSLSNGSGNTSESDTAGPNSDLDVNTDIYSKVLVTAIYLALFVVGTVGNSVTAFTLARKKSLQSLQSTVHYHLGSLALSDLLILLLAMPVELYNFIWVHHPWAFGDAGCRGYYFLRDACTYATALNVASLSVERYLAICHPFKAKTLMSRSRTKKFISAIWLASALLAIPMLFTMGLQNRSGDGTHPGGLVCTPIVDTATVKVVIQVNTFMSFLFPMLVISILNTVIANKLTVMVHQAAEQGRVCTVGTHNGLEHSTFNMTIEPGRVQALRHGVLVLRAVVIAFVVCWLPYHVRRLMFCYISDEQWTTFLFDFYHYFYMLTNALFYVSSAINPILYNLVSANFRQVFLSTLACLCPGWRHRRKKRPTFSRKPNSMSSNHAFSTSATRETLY

Compound `CC[C@H](C)[C@H](NC(=O)[C@H](Cc1ccc(O)cc1)NC(=O)[C@@H]1CCCN1C(=O)[C@H](CCCNC(=N)N)NC(=O)[C@@H](N)CCCNC(=N)N)C(=O)N[C@@H](CC(C)C)C(=O)O` has a half-life at 156 µM [1] of 1.95 min and an Activity (Rattus norvegicus [2]) of 30 mmHg.
Work on `CC[C@H](C)[C@H](NC(=O)[C@H](Cc1ccc(O)cc1)NC(=O)[C@@H]1CCCN1C(=O)[C@H](CCCCN)NC(=O)[C@@H](N)CCCCN)C(=O)N[C@@H](C[Si](C)(C)C)C(=O)O` (H-KKPYI[Ala(SiMe3)]-OH) yielded a half-life at 156 µM [1] of 1.33 min, an IC50 [3] of 0.02 nM and an IC50 [4] of 0.26 nM. The EC50 [5] was 1.51 nM, the EC50 [6] was 1.49 nM and the EC50 [7] was 1.41 nM. The Activity (Rattus norvegicus [2]) was “Active”, the Activity (Rattus norvegicus [8]) was “Active” and the Activity (Rattus norvegicus [9]) was “Active”. The Activity (Rattus norvegicus [10]) was “Active”, the Activity (Rattus norvegicus [11]) was 40% and the Activity (Rattus norvegicus [12]) was “Active”. For the same compound, the Activity (Rattus norvegicus [13]) was “Active”.
For `CC(C)C[C@H](NC(=O)[C@H](C[Si](C)(C)C)NC(=O)[C@H](Cc1ccc(O)cc1)NC(=O)[C@@H]1CCCN1C(=O)[C@H](CCCCN)NC(=O)[C@@H](N)CCCCN)C(=O)O` (H-KKPY[Ala(SiMe3)]L-OH), the half-life at 156 µM [1] was 2.4 min, the IC50 [3] was 93.8 nM and the IC50 [4] was 405 nM. For the same compound, the EC50 [5] was 169 nM, the EC50 [6] was 26.6 nM and the EC50 [7] was > 10000 nM.
`C[Si](C)(C)C[C@H](NC(=O)[C@H](C[Si](C)(C)C)NC(=O)[C@H](Cc1ccc(O)cc1)NC(=O)[C@@H]1CCCN1C(=O)[C@H](CCCCN)NC(=O)[C@@H](N)CCCCN)C(=O)O` (H-KKPY[Ala(SiMe3)][Ala(SiMe3)]-OH) gave a half-life at 156 µM [1] of 2.83 min, an IC50 [3] of 15.4 nM and an IC50 [4] of 28.9 nM. The EC50 [5] was 11 nM, the EC50 [6] was 0.34 nM and the EC50 [7] was 22.5 nM.
With `CN[C@@H](CCCNC(=N)N)C(=O)N[C@@H](CCCCN)C(=O)N1CCC[C@H]1C(=O)N[C@@H](Cc1ccc(O)cc1)C(=O)N[C@@H](C[Si](C)(C)C)C(=O)N[C@@H](CC(C)C)C(=O)O` (H-[NMeR]KPY[Ala(SiMe3)]L-OH) the half-life at 156 µM [1] was > 120 min, the IC50 [3] was 246 nM and the IC50 [4] was 29.7 nM. For the same compound, the EC50 [5] was 204 nM, the EC50 [6] was 4.19 nM and the EC50 [7] was > 10000 nM.
Compound `CC(C)C[C@H](NC(=O)[C@H](C[Si](C)(C)C)NC(=O)[C@H](Cc1ccc(O)cc1)NC(=O)[C@@H]1C[Si](C)(C)CN1C(=O)[C@H](CCCCN)NC(=O)[C@@H](N)CCCCCN)C(=O)O` (H-[hLys]K[Pro(4-sila,4,4-Me2)]Y[Ala(SiMe3)]L-OH) has a half-life at 156 µM [1] of 3.52 min, an IC50 [3] of 968 nM and an IC50 [4] of 1420 nM. For the same compound, the EC50 [5] was > 10000 nM, the EC50 [6] was > 1000 nM and the EC50 [7] was > 10000 nM.
`CO[C@@]12CC[C@@]3(C[C@@H]1[C@](C)(O)C(C)(C)C)[C@H]1Cc4ccc(O)c5c4[C@@]3(CCN1CC1CC1)[C@H]2O5` [BUPRENORPHINE] gave an ED50 (Rattus norvegicus [14]) of 4 nmol.
Compound `CN1CC[C@]23c4c5ccc(O)c4O[C@H]2C(=O)CC[C@H]3[C@H]1C5` [HYDROMORPHONE] has an ED50 (Rattus norvegicus [14]) of 78 nmol.
With `CN1CC[C@]23c4c5ccc(O)c4O[C@H]2[C@@H](O)C=C[C@H]3[C@H]1C5` [MORPHINE] the ED50 (Rattus norvegicus [14]) was 7.4 nmol.
